Paper PMC11123956, “Nobiletin Stimulates Adrenal Hormones and Modulates the Circadian Clock in Mice” (Nutrients, 2024)

Key:
PDE6 = target: T1, PDE6 (Bos taurus, UniProt P11541+P23439); experiment: PDE enzyme  assay, PDE6; format: biochemical, Bovine
T1 construct: Bovine retinal rod outer segments; tissue Eurofins Panlabs Discovery Services Taiwan, Ltd. (contract assay); host or cells: bovine retinal rod outer segments
Experimental: Enzyme assays for various subtypes of PDE (Table 1 and Figure 4) were conducted by Eurofins Panlabs Discovery Services Taiwan, Ltd. (New Taipei City, Taiwan). In the assays, five or six concentrations of nobiletin over five or six orders of magnitude were examined in experiments conducted in duplicate to determine the IC50 (concentration of nobiletin exerting half-maximal inhibition of control-specific activity). IC50 values were determined by nonlinear least squares regression analysis using MathIQTM (ID Business Solutions Ltd., Woking, UK). FAM-cAMP, FAM-cGMP (0.1 μM), and 100 μM [^3H]cGMP + cGMP were used for the substrate in the human recombinant insect Sf9 cells or Bovine retinal rod outer segments depending on the PDE subtype. The spectrofluorometric quantitation of fluorescein-AMP-IMAP, fluorescein-GMP-IMAP, or [^3H] guanosine was used depending on the PDE subtype. A known […] of each PDE was used as the positive control.

serum ACTH = experiment: Serum ACTH ELISA; format: in vivo, mice; settings: an hour after injection (50 or 100 mg/kg)
Experimental: Serum corticosterone, adrenaline, and adreno-corticotropic hormone (ACTH) levels, and corticotropin releasing factor (CRF) in the hypothalamus, were measured using enzyme-linked immunosorbent assay (ELISA). A corticosterone ELISA kit (Cayman Chemical Company, Ann Arbor, MI, USA), an adrenaline ELISA kit (Abcam, Cambridge, UK), an ACTH ELISA kit (Phoenix Pharmaceuticals Inc., Burlingame, CA, USA), and a CRF ELISA kit (Yanaihara Institute Inc., Shizuoka, Japan) were used. Assays were conducted according to the manufacturer’s instructions. Blood samples were collected from the mice at ZT4, 5, and 7 after the administration of nobiletin at ZT3 (10 mg/kg and 100 mg/kg, in Figure 3A,B). Blood glucose levels were measured using a Glucose PILOT kit (Aventir Biotech, LLC, Carlsbad, CA, USA). The range of blood glucose that could be precisely measured with the kit was 20–600 mg/dL. Before measurement, we administered nobiletin (100 mg/kg body weight) to the mice, after 4 h fasting. Blood was collected from the tail vein of each mouse for measurement. The measurements were conducted at 0, 15, 30, 45, 60, and 90 min after reagent administration in Figure 3C. Samples were collected one hour after nobiletin treatment (50 or 100 mg/kg; Figure 3D,E), or 2 or 4 h after treatment in Figure 3F. […]

PDE3 = test system: PDE3; design: method as in PMID 19906817; settings: cited from earlier work
[1] = design: method as in doi:10.1016/j.jddst.2022.104013; settings: rats; cited from earlier work

T1 sequence (P11541 2-856 limits assumed): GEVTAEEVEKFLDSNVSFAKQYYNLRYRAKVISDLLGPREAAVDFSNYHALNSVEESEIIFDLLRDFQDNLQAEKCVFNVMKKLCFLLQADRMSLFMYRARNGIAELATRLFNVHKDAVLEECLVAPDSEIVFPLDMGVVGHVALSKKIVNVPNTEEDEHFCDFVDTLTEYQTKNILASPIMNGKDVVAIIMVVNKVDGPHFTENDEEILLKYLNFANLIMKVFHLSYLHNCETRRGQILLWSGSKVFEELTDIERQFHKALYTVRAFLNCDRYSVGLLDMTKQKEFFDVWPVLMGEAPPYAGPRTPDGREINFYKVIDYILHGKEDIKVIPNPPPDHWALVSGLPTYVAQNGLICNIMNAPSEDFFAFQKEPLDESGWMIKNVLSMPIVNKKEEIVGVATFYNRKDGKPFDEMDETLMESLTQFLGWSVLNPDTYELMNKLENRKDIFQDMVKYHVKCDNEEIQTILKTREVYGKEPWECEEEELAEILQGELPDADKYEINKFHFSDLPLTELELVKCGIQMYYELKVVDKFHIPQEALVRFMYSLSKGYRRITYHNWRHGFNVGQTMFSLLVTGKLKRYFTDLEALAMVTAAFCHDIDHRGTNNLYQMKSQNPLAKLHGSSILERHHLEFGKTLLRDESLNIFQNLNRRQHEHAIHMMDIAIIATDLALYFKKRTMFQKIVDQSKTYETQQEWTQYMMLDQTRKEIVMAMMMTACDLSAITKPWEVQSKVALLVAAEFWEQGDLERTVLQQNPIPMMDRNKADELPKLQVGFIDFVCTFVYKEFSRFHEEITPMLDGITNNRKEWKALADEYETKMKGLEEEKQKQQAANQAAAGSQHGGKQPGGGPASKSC
T1 sequence (P23439 2-850 limits assumed): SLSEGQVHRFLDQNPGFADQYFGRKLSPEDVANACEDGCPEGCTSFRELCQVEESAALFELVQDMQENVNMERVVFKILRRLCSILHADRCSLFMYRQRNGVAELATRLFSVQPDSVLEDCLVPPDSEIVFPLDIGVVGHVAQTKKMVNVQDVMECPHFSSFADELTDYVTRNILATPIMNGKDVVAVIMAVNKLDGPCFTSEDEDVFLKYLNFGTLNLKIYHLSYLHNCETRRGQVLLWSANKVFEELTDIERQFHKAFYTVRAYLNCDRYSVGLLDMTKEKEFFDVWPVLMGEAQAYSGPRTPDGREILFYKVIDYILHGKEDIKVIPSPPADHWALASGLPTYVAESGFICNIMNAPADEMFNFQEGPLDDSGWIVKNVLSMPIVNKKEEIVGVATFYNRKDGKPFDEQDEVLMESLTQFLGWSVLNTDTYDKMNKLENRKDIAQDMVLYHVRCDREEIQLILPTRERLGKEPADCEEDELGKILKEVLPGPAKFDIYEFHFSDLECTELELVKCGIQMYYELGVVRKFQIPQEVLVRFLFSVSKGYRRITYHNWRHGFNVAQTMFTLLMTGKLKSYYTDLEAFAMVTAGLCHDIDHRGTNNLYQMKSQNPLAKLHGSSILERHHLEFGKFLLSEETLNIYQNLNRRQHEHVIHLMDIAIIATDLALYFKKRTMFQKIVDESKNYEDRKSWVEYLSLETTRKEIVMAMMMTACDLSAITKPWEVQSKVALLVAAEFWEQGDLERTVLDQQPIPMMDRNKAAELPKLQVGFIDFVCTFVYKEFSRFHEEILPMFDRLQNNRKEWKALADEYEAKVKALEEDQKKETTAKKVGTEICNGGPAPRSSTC

Q: Which IC50 (PDE6) does the source give for `COc1ccc(-c2cc(=O)c3c(OC)c(OC)c(OC)c(OC)c3o2)cc1OC` [nobiletin] here?
A: 74.5 µM

Q: And the “serum ACTH” value (serum ACTH)?
A: did not change significantly

Q: What about the IC50 (PDE3) of the same compound?
A: 10.4 µM

Q: And the “time of the highest plasma concentration” value [1]?
A: 2 to 4 h
